From US4973587A, “3-arylcarbonyl-1-aminoalkyl-1H-indole-containing antiglaucoma method” (Sterling Drug Inc., priority 1990, dated 1990)

Test system: mouse vas deferens
Test: mouse vas deferens test (MVD)
Type: cell-based
Settings: inhibition of contractions in mouse vas deferens preparation in vitro, active at 5.0 μM or less
From the text: Med. Assoc. 217, 1392 (1971)]. […] Opth 7, 921-923 (1975); Green and Pederson, Effect of delta-9 Tetrahydrocannabinol on Aqueous Dynamics and Ciliary Body Permeability in the Rabbit Eye., Exptl. Eye Research 15, 499-507 (1973); Colasanti, Craig and Allara, Intraocular Pressure, Ocular Toxicity and Neurotoxicity after Administration of Cannabinol or Cannibigerol, Exptl. Eye Research 39, 252-259 (1984)]. Similarly, synthetic cannabinoids also reduce intraocular pressure [Green, Symunds, Oliver and Elijah, Intraocular Pressure Following Systemic Administration of Cannabinoids, Curr. Eye Research 2, 247-253 (1982); Tiedeman, Shields, Weber, Crow, Coccetto, Harris and Howes, Ophthalmology., 88, 270-277 (1981); Colasanti et al., supra]. Cannabinoid receptor binding sites can be defined as those to which radio-labelled 4-(1,1-dimethylheptyl)-2,3'-dihydroxy-6'alpha-(3-hydroxypropyl)-1',2',3',4',5',6'-hexahydrobiphenyl (CP 55940) binds in a specific and saturable manner, and the binding sites are heterogeneously distributed in the brain [Devane, Dysarz, Johnson, Melvin and Howlett, Determination and Characterization of a Cannabinoid Receptor in Rat Brain, Molecular Pharm. 34, 605-613 (1988)]. Natural and synthetic cannabinoids and representative examples of the compounds of the present invention bind to CP 55940 binding sites. […] It is believed that agonist activity at the cannabinoid receptor mediates the anti-glaucoma actions of cannabinoids, and that agonist activity at this receptor correlates with ocular pressure lowering actions in man.

Row | SMILES | IC50 (Mus musculus) | IC50
1 | Cc1c(C(=O)c2ccc3c(c2)OCO3)c2ccccc2n1CCN1CCOCC1 [Example 1-O] | 1300 nM | 
2 | COc1cccc(C(=O)c2c(C)n(CCN3CCOCC3)c3ccccc23)c1 [Example 1AA] | 200 nM | 
3 | COc1ccc(C(=O)c2c(C)n(CCN3CCOCC3)c3ccccc23)cc1OC [Example 1AB] | 68 nM | 
4 | Cc1c(C(=O)c2ccccc2)c2ccccc2n1CCN1CCOCC1 [Example 1AE] | 700 nM | 
5 | O=C(c1ccccc1)c1cn(CCN2CCOCC2)c2ccccc12 [Example 1AF] | 1100 nM | 
6 | Cc1c(C(=O)c2ccc(Cl)cc2)c2ccccc2n1CCN1CCOCC1 [Example 1AG] | 560 nM | 
7 | Cc1c(C(=O)c2ccccc2)c2ccccc2n1C(C)CN1CCOCC1 (centres unmarked) [Example 1AK] | 900 nM | 
8 | COc1ccc(C(=O)c2c(C)n(CCN3CCOCC3)c3ccccc23)c2ccccc12 [Example 1AV] | 26 nM | 
9 | COc1ccc2cc(C(=O)c3c(C)n(CCN4CCOCC4)c4ccccc34)ccc2c1 [Example 1AW] | 460 nM | 
10 | COc1ccc(C(=O)c2cn(CCCN3CCOCC3)c3ccc(F)cc23)cc1 [Example 1AX] | > 10000 nM | 
11 | Cc1c(C(=O)c2cccc3c2OCO3)c2ccccc2n1CCN1CCOCC1 [Example 1BJ] | 310 nM | 
12 | Cc1cccc(C)c1C(=O)c1c(C)n(CCN2CCOCC2)c2ccccc12 [Example 1BO] | 1600 nM | 
13 | COc1cccc(C(=O)c2c(C)n(CCN3CCOCC3)c3ccccc23)c1OC [Example 1BP] | 260 nM | 
14 | COc1cc(OC)cc(C(=O)c2c(C)n(CCN3CCOCC3)c3ccccc23)c1 [Example 1BQ] | 420 nM | 
15 | Cc1c(C(=O)c2cccc3ccccc23)c2ccccc2n1CCCN1CCOCC1 [Example 1BU] | 111 nM | 
16 | Cc1ccc2c(C(=O)c3cccc4ccccc34)c(C)n(CCN3CCOCC3)c2c1 [Example 1BV] | 15 nM | 
17 | O=C(c1cccc2ccccc12)c1cn(CCN2CCOCC2)c2ccc(Br)cc12 [Example 1BW] | 20 nM | 
18 | CC(Cn1cc(C(=O)c2cccc3ccccc23)c2ccccc21)N1CCOCC1 (centres unmarked) [Example 1BX] | 60 nM | 
19 | COc1ccc(C(=O)c2cn(CCCN3CCOCC3)c3ccccc23)cc1 [Example 1BZ] | 4300 nM | 
20 | COc1cc(C(=O)c2c(C)n(CCN3CCOCC3)c3ccccc23)cc(OC)c1OC [Example 1CB] | 90 nM | 
21 | COc1ccc(C(=O)c2cn(CCCN3CCOCC3)c3c(C)cccc23)cc1 [Example 1CD] | 40 nM | 
22 | O=C(c1cccc2ccccc12)c1cn(CCN2CCOCC2)c2ccc(F)cc12 [Example 1CE] | 7 nM | 
23 | Cc1c(C(=O)c2cccc3cc4ccccc4cc23)c2ccccc2n1CCN1CCOCC1 [Example 1CF] | 60 nM | 
24 | Cc1c(C(=O)c2cc3ccccc3c3ccccc23)c2ccccc2n1CCN1CCOCC1 [Example 1CG] | 170 nM | 
25 | O=C(c1ccccc1)c1cn(CCN2CCOCC2)c2ccccc12 [Example 1CH] |  | 1600 nM
26 | COc1ccc(C(=O)c2c(C)n(CCN3CCCC3)c3ccccc23)cc1 [Example 1CI] | 240 nM | 
27 | COc1ccc(C(=O)c2c(C)n(CCCN3CCCC3)c3ccccc23)cc1 [Example 1CJ] | > 10000 nM | 

Row | SMILES | IC50 (Mus musculus) | IC50
28 | CSc1ccc(C(=O)c2c(C)n(CCN3CCOCC3)c3ccccc23)cc1 [Example 1C] | 610 nM | 
29 | COc1ccc(C(=O)c2c(C)n(CCN3CCOCC3)c3c(C)cccc23)cc1 [Example 1D] | 178 nM | 
30 | COc1ccc(C(=O)c2c(C)n(CCN3CCOCC3)c3ccc(F)cc23)cc1 [Example 1E] | 120 nM | 
31 | COc1ccc(C(=O)c2c(C)n(CCN3CCOCC3)c3ccccc23)cc1 [Example 1F] |  | 1400 nM
32 | COc1ccc(C(=O)c2c(C)n(CCCN3CCOCC3)c3ccccc23)cc1 [Example 1H] | 360 nM | 
33 | COc1ccc(C(=O)c2c(C)n(CCN3CCOCC3)c3c(F)cccc23)cc1 [Example 1J] | 73 nM | 
34 | COc1ccc(C(=O)c2c(C)n(CCN3CCOCC3)c3c(OC)cccc23)cc1 [Example 1K] | 260 nM | 
35 | COc1ccc(C(=O)c2c(C)n(CCN3CCOCC3)c3cc(Cl)ccc23)cc1 [Example 1L] | 540 nM | 
36 | Cc1c(C(=O)c2cc3ccccc3o2)c2ccccc2n1CCN1CCOCC1 [Example 1P] | 320 nM | 
37 | COc1ccccc1C(=O)c1c(C)n(CCN2CCOCC2)c2ccccc12 [Example 1R] | 90 nM | 
38 | Cc1c(C(=O)c2ccc3ccccc3c2)c2ccccc2n1CCN1CCOCC1 [Example 1S] | 50 nM | 
39 | Cc1c(C(=O)c2cccc(F)c2)c2ccccc2n1CCN1CCOCC1 [Example 1U] | 1900 nM | 
40 | CCc1ccc(C(=O)c2c(C)n(CCN3CCOCC3)c3ccccc23)cc1 [Example 1X] | 71 nM | 
41 | Cc1ccc(C(=O)c2c(C)n(CCN3CCOCC3)c3ccccc23)cc1 [Example 1Z] | 440 nM | 
42 | Cc1c(C(=O)c2ccc3occc3c2)c2ccccc2n1CCN1CCOCC1 [Example 2AA] | 125 nM | 
43 | COc1ccc(C(=O)c2c(C)n(CCN3CCOCC3)c3ccccc23)c(F)c1 [Example 2AD] | 180 nM | 
44 | Cc1c(C(=O)c2c(F)cccc2F)c2ccccc2n1CCN1CCOCC1 [Example 2AG] | 370 nM | 
45 | Cc1cc(C)cc(C(=O)c2c(C)n(CCN3CCOCC3)c3ccccc23)c1 [Example 2AJ] | 390 nM | 
46 | Cc1c(C(=O)c2cccc(F)c2)c2ccccc2n1C(C)CN1CCOCC1 (centres unmarked) [Example 2AM] | 860 nM | 
47 | Cc1c(C(=O)c2ccc(Br)cc2)c2ccccc2n1CCN1CCOCC1 [Example 2AR] | 620 nM | 
48 | Cc1c(C(=O)c2ccc(Br)c3ccccc23)c2ccccc2n1CCN1CCOCC1 [Example 2AT] | 34 nM | 
49 | COc1ccc(C(=O)c2cn(C(C)CN3CCOCC3)c3ccccc23)cc1 (centres unmarked) [Example 2AU] | 3700 nM | 
50 | CCC(CN1CCOCC1)n1c(C)c(C(=O)c2ccc3ccccc3c2)c2ccccc21 (centres unmarked) [Example 2AV] | 91 nM | 
51 | O=C(c1ccc(Br)c2ccccc12)c1cn(CCN2CCOCC2)c2ccccc12 [Example 2AW] | 5 nM | 
52 | O=C(c1cccc2ccccc12)c1cn(CCCN2CCOCC2)c2ccccc12 [Example 2AX] | 10 nM | 
53 | Cc1ccc2c(C(=O)c3cccc4ccccc34)cn(CCN3CCOCC3)c2c1 [Example 2AY] | 2 nM | 
54 | Cc1c(C(=O)c2ccc3ncccc3c2)c2ccccc2n1CCN1CCOCC1 [Example 2AZ] | 102 nM | 

Row | SMILES | IC50 (Mus musculus) | IC50
55 | Cc1c(C(=O)c2ccc3cccnc3c2)c2ccccc2n1CCN1CCOCC1 [Example 2BA] | 93 nM | 
56 | Cc1c(C(=O)c2cccc3cccnc23)c2ccccc2n1CCN1CCOCC1 [Example 2BB] | 129 nM | 
57 | Cc1c(C(=O)c2cnc3ccccc3c2)c2ccccc2n1CCN1CCOCC1 [Example 2BC] | 570 nM | 
58 | Cc1c(C(=O)c2ccc3ccccc3n2)c2ccccc2n1CCN1CCOCC1 [Example 2BD] | 99 nM | 
59 | Cc1c(C(=O)c2ccnc3ccccc23)c2ccccc2n1CCN1CCOCC1 [Example 2BE] | 115 nM | 
60 | O=C(c1ccc2ncccc2c1)c1cn(CCN2CCOCC2)c2ccccc12 [Example 2BF] | 142 nM | 
61 | O=C(c1cccc2ccccc12)c1c(Cl)n(CCN2CCOCC2)c2ccccc12 [Example 2BG] | 6 nM | 
62 | Cc1c(C(=O)c2ccc3cccnc3c2)c2ccccc2n1CCN1CCOCC1 [Example 2BH] |  | 88 nM
63 | Cc1c(C(=O)c2cccc3ccoc23)c2ccccc2n1CCN1CCOCC1 [Example 2BI] | 17 nM | 
64 | O=C(c1cccc2occc12)c1cn(CCN2CCOCC2)c2ccccc12 [Example 2BJ] | 7 nM | 
65 | O=C(c1ccc2ccoc2c1)c1cn(CCN2CCOCC2)c2ccccc12 [Example 2BK] | 40 nM | 
66 | O=C(c1cn(CCN2CCOCC2)c2ccccc12)c1cccc2ccoc12 [Example 2BL] | 4 nM | 
67 | Cc1c(C(=O)Cc2ccccc2)c2ccccc2n1CCN1CCOCC1 [Example 2BM] | 174 nM | 
68 | COc1ccc(C=CC(=O)c2c(C)n(CCN3CCOCC3)c3ccccc23)cc1 [Example 2BN] | 138 nM | 
69 | Cc1c(C(=O)C=Cc2cccc3ccccc23)c2ccccc2n1CCN1CCOCC1 [Example 2BO] | 130 nM | 
70 | O=C(c1cn(CCN2CCOCC2)c2ccccc12)C1CCCc2ccccc21 (centres unmarked) [Example 2BP] | 10 nM | 
71 | O=C(c1ccccc1F)c1cn(CCN2CCOCC2)c2ccccc12 [Example 2BQ] | 500 nM | 
72 | O=C(c1ccc2occc2c1)c1cn(CCN2CCOCC2)c2ccccc12 [Example 2BR] | 30 nM | 
73 | COCc1ccc(C(=O)c2c(C)n(CCN3CCOCC3)c3ccccc23)cc1 [Example 2BW] | 900 nM | 
74 | Cc1ccc(C(=O)c2c(C)n(CCN3CCOCC3)c3ccccc23)c2ccccc12 [Example 2CA] | 9 nM | 
75 | Cc1ccc(C(=O)c2cn(CCN3CCOCC3)c3ccccc23)c2ccccc12 [Example 2CB] | 3 nM | 
76 | O=C(c1cccc2cc(Cl)ccc12)c1cn(CCN2CCOCC2)c2ccccc12 [Example 2CE] | 88 nM | 
77 | Cc1c(C(=O)c2ccc(Cl)cc2Cl)c2ccccc2n1CCN1CCOCC1 [Example 2CF] | 200 nM | 
78 | Cc1c(C(=O)c2cc3ccc4cccc5ccc(c2)c3c45)c2ccccc2n1CCN1CCOCC1 [Example 2CG] | 40 nM | 
79 | Cc1c(C(=O)c2ccccc2Cl)c2ccccc2n1CCN1CCOCC1 [Example 2CH] | 91 nM | 
80 | O=C(c1ccc2ccccc2c1)c1cn(CCN2CCOCC2)c2ccccc12 [Example 2CJ] | 31 nM | 
